In patent publication US9816993B2, “Magnetically induced microspinning for super-detection and super-characterization of biomarkers and live cells” (THE REGENTS OF THE UNIVERSITY OF MICHIGAN, priority 2011, dated 2017):

Test system: HeLa cell
Experiment: Cell magnetorotation of a single HeLa cell: rotation period and morphology under toxic agents
Assay type: cell-based
Excerpt: The Y axis is the normalized period, and the X axis is time in seconds. Lines show trend between connected points. For each graph, in the pictures above it, the bottom pictures show snapshots of the rotated cell at each indicated time, while the schematic pictures on top of it show the corresponding cell shapes (fixated cell not shown). Dark discs represent the cell cytoplasm and membrane, while grey spots show the vesicles formed at the surface, if any.
In this example, cancer cells loaded with nanoparticles were magnetically separated and resuspended in different media, such as culture medium (DMEM), DMEM with 5% Ethanol, or DMEM with 75% deionized water. Each medium was used to verify different aspects of this method: DMEM was used as a control, ethanol was used as a cytotoxic agent, and, to promote stress through cell swelling, we used a large proportion of DI water, reversing the ionic balance between the inside and outside of the cell. Note that a large concentration of salt in solution has the opposite effect on the cell, namely shrinking it. The cells in suspension were then pipetted onto a LIVE CELL ARRAY plate (NUNC), where the array has 100 μm wide wells, which provide adequate compartments for single cells to rotate and be analyzed. Optical scattering signals were recorded and the changes in the rotation period were measured for the different media (FIG. 2).
Cell swelling generally occurs because of the osmotic pressure created either by an ionic imbalance, as mentioned earlier, or by a lack of nutrients. Either way, the cell expands to cope with the imbalance of the chemicals it needs for maintaining its metabolism. To reach ionic disparity, we used DI water (FIG. 2B).

Row | SMILES | rise of cell rotation period (Cisplatin 100 ug/ml (red line on FIG. 2D)) | time for blebs to appear at the surface of the cell (Cisplatin at 100 ug/ml) | cell death (single HeLa cell in DMEM with 100 ug/ml Cisplatin) | time for blebs to appear at the surface of the cell (5% ethanol in DMEM) | rise of cell rotation period (5% ethanol in DMEM (FIG. 2C)) | cell death (single HeLa cell in DMEM with 5% ethanol)
1 | N.N.[Cl][Pt][Cl] [Cisplatin] | 550% | several hours | cell death is provoked | – | – | –
2 | CCO [ethanol] | – | – | – | around 30 minutes | 550% | cell death is provoked
